{
  "source": "patent US20260263334A1",
  "about": "“COMPOSITIONS CONTAINING NITRATE-RICH FOODS AND EXTRACTS FOR SHIFTING THE ORAL MICROBIOME” (WM. WRIGLEY JR. COMPANY, priority 2023, published 2026)",
  "key": {"salivary bacteria": {"system": "salivary bacteria", "test": "nitrate reductase (NR) activity of human salivary bacteria (Griess reagent)", "type": "cell-based", "procedure": "Human stimulated saliva was collected from two subjects and tested for NR activity in the presence of nitrate, cysteine and a combination of nitrate and cysteine. The Griess test was used for nitrite production.\nTwo subjects were evaluated in this study. The subjects refrained from oral hygiene and eating the night before and morning of the test and their stimulated saliva was collected after chewing 1 g of gum base for 5 minutes. The saliva samples were stored immediately on ice, diluted 1:1 with D.I. H2O and used as a bacterial source for nitrate reductase (NR) activity testing under anaerobic condition.\nThe contents in each reaction mixture contained (mL):\nDetection of the end product of NR and nitrite was by the Griess reagent at OD550 nm readings."}, "[1]": {"system": "Veillonella atypica (ATCC 17744) (V.a.)", "test": "nitrate reductase (NR) activity of V.a (Griess test)", "type": "cell-based", "details": "Cysteine 1%", "procedure": "(§1) For evaluation of nitric oxide producing capability of oral bacteria, overnight cultures of test organisms were washed once and transferred into a medium without any nitrate or nitrite compounds. A 0.5% (or 1%) KNO3 was added to the medium, and further incubated anaerobically at 37° C. for 24-48 hours. The concentration of nitrite (due to reduction of nitrate by nitrate reductase) was determined by Griess Test over a desired period of time.\n(§2) To examine the effect of natural and chemical antimicrobial agents on NO production, test bacteria were pre-exposed to magnolia bark extract (MBE) (a natural germ-kill compound), peppermint oil, and chlorhexidine (CHX). The activities of nitrate reductase from oral bacteria were assayed by Griess test as described above. No treatment controls were included for each test bacterial species. The production of nitrite was reduced if the test antimicrobial compounds affected the nitrate reductase activity. Dose response curves were prepared.\nV. atypica was grown in RCM medium without (NH4)2SO4 (to avoid the NH4 affecting Griess reagent); and without agar (0.05%, to avoid affecting the OD measurement).\nThe method used was the same as that for A.a., except the V.a cell concentration was adjusted to OD550 nm=0.7 (10^8 CFR/ml) in Reduced Transport buffer. The NR activity was also determined in the same buffer system. […]\n(§3) Test bacteria cells were incubated with 1% cysteine in growth medium and 0.3% of a nitrate source. Controls contained no cysteine."}, "[2]": {"system": "Aggregatibacter actinomycetemcomitans (A.a.)", "test": "nitrate reductase (NR) activity of A.a. (Griess test)", "type": "cell-based", "details": "for NR activity (OD) of A.a in the presence of cysteine: Cysteine 1%, 0.3% nitrate source", "procedure": "as §1, §2\nA. actinomycetemcomitans (A.a.) was grown anaerobically in THB broth supplemented with 1% yeast extract with 0.001% Hemin, and 0.0001% Vitamin K.\nThe nitrate source KNO3 (0.1% final) was added to respective growth media for individual test bacteria and incubated for 24-48 hours, then 20 μl of the culture broth was withdrawn and tested for nitrite with Griess reagent.\nTest bacteria were grown in respective media anaerobically for 48 hours. Cells were centrifuged and re-suspended in buffer or fresh medium for NR activity testing. […]\nas §3"}, "saliva": {"system": "saliva", "test": "ex vivo production of H2S by saliva (headspace, gas chromatograph with chemiluminescent sulfur detector)", "type": "cell-based, human", "details": "saliva mixed with cysteine"}},
  "data": [
    {"smiles": "O=[N+]([O-])[O-].[K+]", "note": "[KNO3, potassium nitrate]", "values": [
      {"measurement": "NR activity of salivary bacteria (nitrite production)", "setting": "salivary bacteria; KNO3 3%, saliva of two subjects", "value": "induced NR activity"}
    ]},
    {"smiles": "N[C@@H](CS)C(=O)O", "note": "[cysteine, L-cysteine]", "values": [
      {"measurement": "reduction of NR activity", "setting": "salivary bacteria; addition of cysteine, pooled saliva from 4 subjects, OD600 nm=0.7, 1.0 and 1.5", "value": "23-49%"},
      {"measurement": "NR activity of salivary bacteria", "setting": "salivary bacteria; cysteine 0.25% in addition to nitrate (KNO3 3%), saliva of two subjects", "value": "decrease in NR activity"},
      {"measurement": "NR activity (OD) of V.a in the presence of cysteine", "setting": "[1]; 1st trial, 2 hr", "value": 0.372, "unit": "OD"},
      {"measurement": "NR activity (OD) of V.a in the presence of cysteine", "setting": "[1]; 1st trial, 3 hr", "value": 0.711, "unit": "OD"},
      {"measurement": "NR activity (OD) of V.a in the presence of cysteine", "setting": "[1]; 2nd trial, 2 hr", "value": 0.487, "unit": "OD"},
      {"measurement": "NR activity (OD) of V.a in the presence of cysteine", "setting": "[1]; 2nd trial, 3 hr", "value": 0.808, "unit": "OD"},
      {"measurement": "NR activity (OD) of V.a in the presence of cysteine", "setting": "[1]; 3rd trial, 2 hr", "value": 1.139, "unit": "OD"},
      {"measurement": "NR activity (OD) of V.a in the presence of cysteine", "setting": "[1]; 3rd trial, 3 hr", "value": 1.144, "unit": "OD"},
      {"measurement": "NR activity (OD) of A.a in the presence of cysteine", "setting": "[2]; 1st trial, 2 hr", "value": 0.207, "unit": "OD"},
      {"measurement": "NR activity (OD) of A.a in the presence of cysteine", "setting": "[2]; 1st trial, 3 hr", "value": 0.672, "unit": "OD"},
      {"measurement": "NR activity (OD) of A.a in the presence of cysteine", "setting": "[2]; 2nd trial, 2 hr", "value": 0.994, "unit": "OD"},
      {"measurement": "NR activity (OD) of A.a in the presence of cysteine", "setting": "[2]; 2nd trial, 3 hr", "value": 0.928, "unit": "OD"},
      {"measurement": "NR activity (OD) of A.a in the presence of cysteine", "setting": "[2]; 3rd trial, 2 hr", "value": 0.832, "unit": "OD"},
      {"measurement": "NR activity (OD) of A.a in the presence of cysteine", "setting": "[2]; 3rd trial, 3 hr", "value": 0.919, "unit": "OD"},
      {"measurement": "NR activity of A.a", "setting": "[2]; addition of cysteine (1%)", "value": "not significantly affected"},
      {"measurement": "H2S generated in the headspace air", "setting": "saliva", "value": 20, "unit": "ppm"}
    ]}
  ]
}
